As to `CC(CS(=O)(=O)c1ccccc1)C1CCC2C3CC=C4CC(O)CCC4(C)C3CCC12C` (configuration not stated), the melting point was in the range of 158 to 161 °C.

`Cc1cccc(NC(=O)c2ccccc2C)c1` showed a melting point of 145 to 146 °C. The value for `OCc1c(OCc2ccccc2)ccc2c1CC[C@@H](NC1CCC1)[C@@H]2O` (relative stereo) was 156 to 158 °C. The result for `CC[C@@H](O)[C@@H](CCCC(C)=O)OCc1ccccc1` reads 30 to 31 °C. The value for `OCCN1CCC(=C2c3ccccc3Oc3ccc(Br)cc32)CC1` was 142 to 146 °C; that for `COC(=O)C=Cc1cc2cc(NC(=O)c3cc4ccccc4o3)ccc2[nH]1` was 259 to 260 °C; that for `O=C1c2ccccc2C(=O)c2c1nc1ccc(Cl)cn21` was more than 300 °C. For the compound `Cc1cc(SC2=C(O)CC(CCc3ccc(N)cc3)(CCc3ccc(N)cc3)OC2=O)c(C(C)(C)C)cc1CO`, the melting point lay in the range of 144 to 146 °C. For `Cc1ccc(-c2nc(Cl)nc(Cl)c2-c2ccccc2)cc1`, the melting point is 130 to 132 °C. For the compound `N#CC(c1ccccc1)c1ccc(Cl)nn1` (configuration not stated), the melting point is 131 °C.

`COc1cc(C(=O)N2CCC(CCN3CCC(C(=O)c4nc5ccccc5n4Cc4ccc(F)cc4)CC3)(c3ccc(C(F)(F)F)cc3)C2)cc(OC)c1OC` (configuration not stated) came in with a melting point of 55 to 57 °C. The result for `CCOC(=O)C(=CN(C)C)C(=O)c1cc(F)c(N2CCC(NC(C)=O)C2)nc1Nc1ccc(F)cc1F` (configuration not stated) reads 184 to 186 °C. For `CC1=C(c2ccccc2F)C(=O)N(C(C)(C)C(O)c2ccc(F)c(C)c2)CO1` (configuration not stated), the melting point lay in the range of 87.6 to 89 °C. The value for `O=CNc1ccc([N+](=O)[O-])cc1` was 195 to 199 °C. With `CCCCC(C)OC(=O)c1ccccc1S(=O)(=O)NC(=O)Nc1nc(C)nc(OC)n1` (configuration not stated), the melting point was in the range of 125 to 130 °C. The result for `CCn1ncc2c(NC)c3c(nc21)C(=NC)c1ccccc1CC3` reads 233 to 235 °C; that for `O=C1C(=Cc2ccsc2)CCc2cc(OCCn3ccnc3)ccc21`, 61 to 62 °C; that for `CCn1c(=O)c2c(nc(/C=C/c3ccc(OCC(=O)c4ccccc4)c(OC)c3)n2C)n(CC)c1=O`, 180 to 182 °C. The result for `COc1ccccc1OP(=O)(CN(CC#N)N=O)Oc1ccccc1OC` reads 83 to 85 °C; that for `CC(C)(C)C(=O)Nc1nc(Cl)c2ccnc-2[nH]1`, more than 210 °C; that for `N#CCCn1nc2ccc(Cl)nn2c1=O`, 166 to 168 °C. The value for `C(=Cc1ccccc1)Cn1ccnc1` was 37 to 38 °C.

On to `CCCCOc1ccc(SCCSc2ccc(OCCCC)cc2)cc1`, for which the melting point lay within 102 to 103 °C.

Regarding `O=c1cc(-c2ccc(OCc3ccccc3)cc2)oc2cc(OCc3ccccc3)cc(OCc3ccccc3)c12`, the melting point was 60 to 62 °C. In the case of `CC(=O)OC(CN1C(=O)N(C(C)=O)C2(CC(C)(C)N(C(C)=O)C(C)(C)C2)C1=O)CN1C(=O)N(C(C)=O)C2(CC(C)(C)N(C(C)=O)C(C)(C)C2)C1=O`, the melting point lay in the range of 286 to 288 °C.

The compound `CCN(CC)C(=S)Oc1cc(Br)cc(Br)c1` displayed a melting point of 72 to 74 °C. Regarding `CN1CCC(=O)C(C(c2ccc(Cl)cc2)c2ccc(Cl)cc2)C1` (configuration not stated), the melting point is 146 to 147 °C. The result for `CC(=O)Oc1ccc(C[C@H]2CCc3ccccc3O2)cc1` reads 64 to 65 °C; that for `COc1ccc(CNc2nc(N(C)CCO)ncc2C(=O)c2cc(OC)c(OC)c(OC)c2)cc1Cl`, 166 to 168 °C.

The compound `O=C(O)c1cc(-c2ccc3c(c2)CCO3)nn(CCCc2ccc(Cl)cc2)c1=O` showed a melting point of 157 to 160 °C. The value for `ON=C(CCC(CN1CCN(c2ncccn2)CC1)C(=NO)c1ccccc1)c1ccccc1` (configuration not stated) was 75 to 78 °C. The value for `CN1CC(CCCl)Oc2ccccc2C1=O` (configuration not stated) was 97 to 107 °C. Take `O=C(O)CN1CC(=O)N(Cc2ccc(Cl)c([N+](=O)[O-])c2)C1=O`: the melting point was in the range of 167 to 168 °C. The value for `N#CC1(c2ccc(OCc3ccc(F)cc3)c(OC3CCCC3)c2)CCC(=NO)CC1` (configuration not stated) was 55 to 57 °C; that for `CC(=O)c1c(F)cc2c(=O)c(C(=O)O)cn3c2c1OCC3C` (configuration not stated) was 258 to 259 °C; that for `Cc1ccc(S(=O)(=O)NCCOS(=O)(=O)c2ccc(C)cc2)cc1` was 89 to 90 °C.

`CCOC(=O)c1ccn2ncc(-c3cccc(Cl)c3)c2n1` gave a melting point of 126 to 129 °C. The value for `N#CC(Cl)CC(Cl)(Cl)C=O` (configuration not stated) was 49 to 50 °C.

`O=c1c(Cc2ccncc2)c(-c2ccc(Cl)cc2)[nH]c2ccccc12` returned a melting point of 232 to 234 °C. Compound `OC(CN1CCC(O)(Cc2ccccc2)CC1)c1ccc(Cl)cc1` (configuration not stated) displayed a melting point of 151 to 152 °C.

In turn, `CN1C(=O)c2cccc(C(F)(F)F)c2Sc2ccccc21` displayed a melting point of 139 to 141 °C. The value for `CC(C)n1nc(-c2c(F)nc(N)nc2-c2ccccc2)ccc1=O` was 231 to 232 °C; that for `CC(C)c1oc(C=Cc2ccccc2)nc1C(=O)O` was 141 to 142 °C.

The compound `CN1CCN(c2ccc(/C=C/c3cc(/C=C/c4ccc5cc[nH]c5c4)[nH]n3)cc2)CC1` returned a melting point of 192 to 198 °C. The result for `O=[N+]([O-])c1ccc(C=Cc2ccc(OCC(O)CO)cc2)cc1` (configuration not stated) reads 147 °C; that for `COc1ccc(C(=C/C=C/C(=O)Nc2ccc(-c3cccnc3)cc2)c2ccc(OC)cc2)cc1`, 210 to 212 °C. The result for `CNC(=O)NC(=O)N1CCN(c2ccccc2)CC1` reads 198 to 200 °C. The result for `CC(C)(C)c1ccc(C(O)(c2ccccc2)c2ncc[nH]2)cc1` (configuration not stated) reads 166 °C; that for `CSC1NC(=O)N(c2ccccc2)C(=O)N1N=C(C)C` (configuration not stated), 206 to 207 °C; that for `c1ccc(-c2ccc(CCN3CCN(c4ccccc4)CC3)s2)cc1`, 124 °C.

`CCOC(=O)NS(=O)(=O)c1ccc2c(c1)CCO2` registered a melting point of 118 to 119 °C. The value for `CC[C@@]12C[C@H](O)[C@](O)(c3c(F)cccc3F)C[C@H]1CCc1cc(OCc3cccnc3C)ccc12` was 80 to 83 °C; that for `CCCC[C@H](NC(=O)C(CSC(C)=O)C(F)(F)F)C(=O)O` (some centres not stated) was 123 to 125 °C; that for `O=[N+]([O-])c1cc(S(=O)(=O)N(CCO)CCO)sc1Cl` was 100 °C. The value for `C[C@H](Cc1ccc2c(c1)cc(C(=O)O)n2CC1CC1)NC[C@H](O)c1cccc(Cl)c1` was 207 to 209 °C; that for `Cc1nn(CC(F)(F)COC(=O)N(C)C)c(-c2ccc(F)cc2)c1-c1ccc2c(c1)NC(=O)CO2` was 146 °C; that for `CC(=O)NCc1cccc(Nc2nccc(-c3sc(C)nc3C)n2)c1` was 206 to 207 °C. The result for `CC(C)(C)N1CN(Cc2ccccc2)C(N)=C2C=NN=C21` reads 138 to 140 °C; that for `CC(C)(C)OC(=O)N(c1ccccc1)S(=O)(=O)c1ccc2c(c1)CCC(C)(C)O2`, 117 to 120 °C. The compound `Cc1nnc(NCCCOc2cccc(CN3CCCCC3)c2)n1C` came in with a melting point of 143 to 144 °C.

`CCOCCOc1cc(C(O)C#Cc2ccc(C(=O)O)cc2)cc2c1C(C)(C)CCC2(C)C` (configuration not stated) displayed a melting point of 158 °C.

`COc1ccc2c(c1OCCc1ccccc1)CC(C(=O)O)NC2` (racemic): the melting point lay within 232 to 235 °C.

These data come from a melting point compilation (Tetko et al.; mined from patent text by program, amines drawn as free bases though some values may be those of a salt).
